Patent US20240059729A1, “MULTIFUNCTIONAL CYCLIC DINUCLEOTIDE AND USE THEREOF” (TYLIGAND BIOSCIENCE (SHANGHAI) LIMITED, priority 2020, published 2024)
Counter-ions that a name gives are not always drawn.

How the values were obtained:
CT26 cells [1] = test: Inhibition of proliferation of CT26 cells (CellTiter-Glo); type: cell-based, mouse; settings: Mus musculus, 120 hours, CellTiter-Glo
Experimental: CT26 cell is a mouse colorectal cancer cell line. This assay used the CellTiter-Glo Luminescence Cell Vitality Assay kit from Promega to evaluate the inhibitory activity of the compounds on the proliferation of CT26 cells.
In thawing the CT26 cells (ATCC #CRL-2638), a cell freezing tube was quickly shaken in a water bath at 37° C. to thaw the cells within 1 min. The thawed cell suspension was taken and evenly mixed with DMEM medium (GE, Cat #SH30243.01) containing 10% FBS (GIBCO, Cat #10099-141), centrifuged for 5 min at 1000 rpm, and the supernatant was discarded. The cell pellet was resuspended in 5 mL of the complete medium (DMEM medium containing 10% FBS), placed into a cell culture flask with a bottom area of 25 cm^2, and incubated in a cell incubator at 37° C., 5% CO2 and 95% humidity. When the cell confluence reached 70%˜80%, the cells were passaged. All the cells in the culture flask were transferred to a 15 mL centrifuge tube, centrifuged for 5 min at 1000 rpm, and the supernatant was discarded. 5 mL of fresh complete medium was added to re-suspend the cell pellet, 1 mL of which was taken to place in a cell culture flask with a bottom area of 25 cm^2, supplemented with 4 mL of fresh complete medium for further incubation. When the cell confluence reached 70%-80% again, plating was conducted following the procedure of cell passage, retaining 1/5 cell suspension for further inculation and remaining 4/5 of the cell suspension in a 15 mL centrifuge tube.
The cell suspension was centrifuged to discard the old culture medium, washed once using DMEM medium (serum-free), and centrifuged to remove the supernatant. The cells were then re-suspended in DMEM medium (serum-free). Cell viability was then detected by Trypan blue exclusion test and to be used for plating when the cell viability was confirmed to be more than 95%. A cell suspension with a density of 1.1×10^4 viable cells/mL was prepared using DMEM medium (serum-free), and 90 μL of the cell suspension was added to a 96-well 96-well transparent flat-bottomed black-walled cell culture plate (Corning, Cat #3603) so that the cell density in the plate was 1000 viable cells/well. A control group containing no cells, no compound, and complete medium only (i.e., a culture medium control), and a control group containing no compound but cells (i.e., a cell control) were set. The cell plates were placed in a cell incubator overnight.
(§1) A 10 mM stock solution of the compounds in DMSO was first serially diluted at 3.16-fold with DMSO (Sigma, Cat #D2650) to the 9th concentration, and the 10th concentration was set as DMSO control (compound-free). Then, the DMSO solutions containing different concentrations of the compounds were diluted at 10-fold with PBS (Solarbio, Cat #P1020) so that the DMSO content in each compound solution of various concentrations was 10%. Finally, 10 μL of each of such solutions was added into corresponding cell culture plate to provide an initial compound concentration of 100 μM, with the dilution fold of adjacent concentrations being 3.16 and the DMSO content in the cell culture plate being 1%. The cell plate was placed in a cell incubator for further 120 hours.
After 120 hours, the CellTiter-Glo reagent (Promega, Cat #G7572) was thawed and the plates were equilibrated at room temperature for 30 min. 100 uL of CellTiter-Glo was added to each well of the plate, and the cells were lysed thoroughly by shaking on an orbital shaker for 5 min. The plates were placed at room temperature for 20 min to stabilize the luminescence signal, and the luminescence value of each well was scanned at full wavelength with a multifunctional microplate reader (Molecular Devices, Spectramax M3). […]

[2] = test system: IFN-β secretion by THP-1 cells; test: Activation of IFN-β secretion by THP-1 cells (Human IFN-beta ELISA); type: cell-based; settings: for EC50 / Activating effect on IFN-β secretion / STING agonist activity (in words): THP-1 cells; for EC50: 24 hours, IFN-β ELISA; for Activating effect on IFN-β secretion / STING agonist activity (in words): EC50 compared with 2′,3′-cGAMP and ADU-S100
Experimental: THP-1 cell, a human monocytic leukemia cell line, has the STING phenotype of HAQ type, i.e., R71H-G230A-R293Q. This assay used the Human IFN-beta DuoSet ELISA Kit from R & D (R & D, Cat #DY814-05) and the DuoSet ELISA Ancillary Reagent Kit 2 (R & D, Cat #DY008) to evaluate the activation of IFN-β secretion from THP-1 cells by representative compounds of the invention.
In thawing the THP-1 cells (ATCC #TIB-202), a cell freezing tube was quickly shaken in a water bath at 37° C. to thaw the cells within 1 min. The thawed cell suspension was taken and evenly mixed with an RPMI1640 medium (Hyclone, product #SH30027.01) containing 10% FBS (Life Technology, Cat #10099-141), centrifuged for 5 min at 1000 rpm, and the supernatant was discarded. The cell pellet was resuspended in 5 mL of the complete medium (RPMI 1640 medium containing 10% FBS), placed into a cell culture flask with a bottom area of 25 cm^2, and incubated in a cell incubator at 37° C., 5% CO2 and 95% humidity. When the cell confluence reached about 80%, the cells were passaged. All the cells in the culture flask were transferred to a 15 mL centrifuge tube, centrifuged for 5 min at 1000 rpm, and the supernatant was discarded. 5 mL of fresh complete medium was added to re-suspend the cell pellet, 1 mL of which was taken to place in a cell culture flask with a bottom area of 25 cm^2, supplemented with 4 mL of fresh complete medium for further incubation. When the cell confluence reached about 80% again, plating was conducted following the procedure of cell passage, retaining 1/5 cell suspension for further inculation and remaining 4/5 of the cell suspension in a 15 mL centrifuge tube. The cell suspension was centrifuged to discard the old culture medium, washed once using RPMI1640 culture medium (serum-free), and centrifuged to remove the supernatant. The cells were then re-suspended in RPMI1640 culture medium (serum-free). Cell viability was then detected by Trypan blue exclusion test and to be used for plating when the cell viability was confirmed to be more than 95%. A cell suspension with a density of 1.1×10^6 viable cells/mL was prepared using RPMI1640 culture medium (serum-free), and 180 μL of the cell suspension was added to a 96-well cell culture plate (NUNC Company, Cat #167008) so that the cell density in the plate was 2×10^5 viable cells/well.
as §1, with “the 5th” for “the 9th”, “the 6th” for “the 10th”, “PBS” for “PBS (Solarbio, Cat #P1020)”, “Finally, 20” for “Finally, 10”, “further 24” for “further 120”
ELISA detection was conducted referring to the instructions from R & D System, Cat #DY814-05.
ELISA plate coating: PBS (R & D System Cat #DY006) was used to dilute the capture antibody (mouse anti-human IFN-β capture antibody PART #844508) to provide the working concentration, and 100 μL capture antibody working solution was added to a 96-well ELISA plate which was then sealed and incubated overnight at room temperature. Upon discarding the capture antibody working solution, the cell plate was washed 3 times with a washing buffer (0.05% Tween-20 in PBS, pH 7.2-7.4, R & D System Cat #WA126) at 400 μL of the washing buffer per well, and the washing buffer was thoroughly removed after each washing, with the final washing to be completely removed of the wash buffer by inverting and claping the plate to a clean piece of paper. […]

CT26 cells [3] = test: Anti-tumor activity in bilateral transplantation tumor model of CT26 syngeneic mouse; type: in vivo, BALB/c mice; settings: Day 13 post-dose; 50 μg/mouse intratumorally right side, Day 0 and Day 4
Experimental: BALB/c mice of 6-8 weeks (purchased from Shanghai Ling Chang Biotech Co., Ltd.) were inoculated with 5×10^5 CT26 cells (supplied by Taicang Zexin Biotechnology Co., Ltd., ATCC #CRL-2638) subcutaneously on the left and right back dorsal, respectively, and the inoculation volume was 0.1 mL/side. When tumors grew to an average volume of 100 mm^3, they were randomized according to tumor size and mouse body weight and dosing was initiated. The day of the first dose was Day 0.
Two doses were administered on Day 0 and Day 4, with 50 μg of compound/mouse (i.e., 2.5 mg/kg) injected intratumorally right side, with the same volume of PBS (Hyclone, Cat #SH30258.01) as a control. The tumor on the left side was not treated. The control mice were sacrificed 13 days and the treated mice were sacrificed 21 days, after dosing. During the experiment, tumor volumes on the left and right sides and the body weights were measured 3 times per week, and the tumor volume was calculated as V=D×d×d/2 (where D represents length of tumor and d represents width of tumor).

| SMILES | IC50 (CT26 cells [1]) [µM] | EC50 ([2]; Homo sapiens, THP-1, 24 h) [µM] | Growth inhibition rate, untreated left tumor (CT26 cells [3]) [%] | Activating effect on IFN-β secretion / STING agonist activity (in words) [2] | EC50 ([2]; diammonium salt) [µM] | Highest concentration of IFN-β secreted by stimulated THP-1 cells ([2]; compared with ADU-S100) |
| --- | --- | --- | --- | --- | --- | --- |
| Nc1nc(Cl)nc2c1ncn2[C@@H]1O[C@@H]2CO[P@@](=O)(S)OC3C(O)[C@@H](CO[P@@](=O)(S)OC2C1F)O[C@H]3n1cnc2c(N)ncnc21 (stereo partly drawn) [Example 5, (2′,3′)-cyclo-(Rp,Rp)-[2′-O-phosphorothioate-diester-adenosine]-[3′-O-phosphorothioate-diester-2-chloro-2′-deoxy-2′-fluoro-beta-adenosine] diammonium salt] | 1 to 10 | 10.1 to 100 | – | – | – | – |
| Nc1nc2c(ncn2[C@@H]2O[C@@H]3CO[P@@](=O)(S)OC4C[C@H](n5cnc6c(N)nc(Cl)nc65)O[C@@H]4CO[P@@](=O)(S)OC2C3O)c(=O)[nH]1 (stereo partly shown) [Example 12, (2′,3′)-cyclo-(Rp,Rp)-[2′-O-phosphorothioate-diester-guanosine]-[3′-O-phosphorothioate-diester-2-chloro-2′-deoxy-adenosine] diammonium salt] | 1 to 10 | 1 to 10 | 75.3 | significant STING agonist activity | – | – |
| Nc1nc2c(ncn2[C@@H]2O[C@@H]3CO[P@@](=O)(S)OC4C(F)[C@H](n5cnc6c(N)nc(Cl)nc65)O[C@@H]4CO[P@](=O)(S)OC3C2O)c(=O)[nH]1 (stereo partly drawn) [Example 16, (3′,3′)-cyclo-(Rp,Rp)-[3′-O-phosphorothioate-diester-guanosine]-[3′-O-phosphorothioate-diester-2-chloro-2′-deoxy-2′-fluoro-beta-adenosine] diammonium salt] | 1 to 10 | – | 71.7 | significant STING agonist activity | 1 to 10 | higher than that of ADU-S100 |
| Nc1ccn([C@@H]2O[C@@H]3CO[P@@](=O)(S)O[C@H]4C(O)[C@@H](CO[P@@](=O)(S)O[C@@H]3C2(F)F)O[C@H]4n2cnc3c(=O)[nH]c(N)nc32)c(=O)n1 (stereo partly shown) [Example 13, (2′,3′)-cyclo-(Rp,Rp)-[2′-O-phosphorothioate-diester-guanosine]-[3′-O-phosphorothioate-diester-2′-deoxy-2′,2′-difluorocytidine]diammonium salt] | < 1 | 10.1 to 100 | – | – | – | – |
